# Laboratory results taken from patent US20100233681A1, “METHOD FOR CELL BASED ASSAYS” (GE Healthcare UK Limited, priority 2006, published 2010).
# Tested on: U2OS osteosarcoma cells
# Conditions: 250 ml of a 40 mM solution of histamine added after 20 seconds; control cells steady state 4500000 fluorescence units; 37° C.; FluoroMax-3 spectrofluorimeter
# Experimental: i) U2OS osteosarcoma cells were grown on collagen coated CYTODEX™ 3 microcarriers (GE Healthcare) according to the Manufacturer's instructions in DMEM media (Invitrogen) supplemented with 10% (v/v) fetal bovine serum (Sigma). Once the culture had attained the required volume and cell density the cells on beads were loaded with 1 μM Fluo-4 (Invitrogen). Microcarriers were allowed to settle, the growth media removed and replaced with calcium flux buffer (145 mM sodium chloride, 5 mM potassium chloride, 1 mM magnesium sulphate, 10 mM HEPES, 10 mM D-glucose, 1 mM calcium chloride containing 1% BSA, 1 μM Fluo-4 (Invitrogen) and the cells incubated for 40 minutes at 37° C. Beads were allowed to settle, the calcium flux buffer removed and replaced with DMEM media supplemented with 10% (v/v) fetal bovine serum and glycerol (10% v/v final concentration) was added as a cryo-preservative. Fluo-4 loaded cells on beads were divided into aliquots of 8×10^5 cells and the 1 ml aliquots frozen to −140° C. at a freezing rate of 1° C./minute. ii) To set up the cell assay, vials of cryo-preserved cells were rapidly thawed in a water bath at 37° C. and cells on bead suspensions placed in 1.5 ml spectrofluorimeter cuvettes and equilibrated at 37° C. for 30 minutes. Fluorescence measurements were acquired over time using a FluoroMax-3 spectrofluorimeter using excitation and emission settings for Fluo-4.
compound,measurement,value
NCCc1c[nH]cn1 [histamine],Fluo-4 fluorescence after addition of histamine (intracellular calcium release),5170000 fluorescence units
